PubChem BioAssay (NCI)
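Here, GI50 denotes the concentration required for 50% inhibition of growth. TGI: concentration producing complete growth inhibition.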

Columns and labels:
Assay in all cases: NCI tumour cell line growth inhibition, 384-well format
SNB-19 CNS = test system: SNB-19 CNS
A498 renal = test system: A498 renal
RPMI-8226 leukemia = test system: RPMI-8226 leukemia
NCI-H322M lung = test system: NCI-H322M lung
NCI-H226 lung = test system: NCI-H226 lung
SK-MEL-5 melanoma = test system: SK-MEL-5 melanoma
HS 578T breast = test system: HS 578T breast
HCT-15 colon = test system: HCT-15 colon
U251 glioblastoma = test system: U251 glioblastoma
CAKI-1 renal = test system: CAKI-1 renal
M14 melanoma = test system: M14 melanoma
EKVX NSCLC = test system: EKVX NSCLC
IGROV1 ovarian = test system: IGROV1 ovarian
786-0 renal = test system: 786-0 renal
SN12C renal = test system: SN12C renal
MDA-MB-231 breast = test system: MDA-MB-231 breast
A549 NSCLC = test system: A549 NSCLC
HT29 colon = test system: HT29 colon
SR leukemia = test system: SR leukemia
SF-295 CNS = test system: SF-295 CNS
MDA-MB-435 melanoma = test system: MDA-MB-435 melanoma
NCI/ADR-RES ovarian = test system: NCI/ADR-RES ovarian
PC-3 prostate = test system: PC-3 prostate
HCC-2998 colon = test system: HCC-2998 colon
OVCAR-5 ovarian = test system: OVCAR-5 ovarian
DU-145 prostate = test system: DU-145 prostate
K-562 leukemia = test system: K-562 leukemia
HOP-62 NSCLC = test system: HOP-62 NSCLC
SF-539 CNS = test system: SF-539 CNS
OVCAR-8 ovarian = test system: OVCAR-8 ovarian
UO-31 renal = test system: UO-31 renal
SW-620 colon = test system: SW-620 colon
NCI-H522 lung = test system: NCI-H522 lung
MOLT-4 leukemia = test system: MOLT-4 leukemia
OVCAR-4 ovarian = test system: OVCAR-4 ovarian
RXF 393 renal = test system: RXF 393 renal
HL-60(TB) leukemia = test system: HL-60(TB) leukemia
ACHN renal = test system: ACHN renal
BT-549 breast = test system: BT-549 breast
SK-MEL-28 melanoma = test system: SK-MEL-28 melanoma
SF-268 CNS = test system: SF-268 CNS
TK-10 renal = test system: TK-10 renal
NCI-H23 lung = test system: NCI-H23 lung
MALME-3M melanoma = test system: MALME-3M melanoma
OVCAR-3 ovarian = test system: OVCAR-3 ovarian
SNB-75 CNS = test system: SNB-75 CNS
CCRF-CEM leukemia = test system: CCRF-CEM leukemia
UACC-257 melanoma = test system: UACC-257 melanoma
HOP-92 NSCLC = test system: HOP-92 NSCLC
UACC-62 melanoma = test system: UACC-62 melanoma
LOX IMVI melanoma = test system: LOX IMVI melanoma
SK-OV-3 ovarian = test system: SK-OV-3 ovarian
KM12 colon = test system: KM12 colon
COLO 205 colon = test system: COLO 205 colon
MCF7 breast = test system: MCF7 breast
MDA-MB-468 breast = test system: MDA-MB-468 breast
NCI-H460 NSCLC = test system: NCI-H460 NSCLC
T-47D breast = test system: T-47D breast

c1ccc(-c2nn3c(c2-c2ccnc4cc(OCCN5CCOCC5)ccc24)CCC3)nc1
GI50 (SNB-19 CNS): > 100 µM | TGI (SNB-19 CNS): > 100 µM | GI50 (A498 renal): > 100 µM | TGI (A498 renal): > 100 µM | GI50 (RPMI-8226 leukemia): 48 µM | TGI (RPMI-8226 leukemia): > 100 µM | GI50 (NCI-H322M lung): > 100 µM | TGI (NCI-H322M lung): > 100 µM | GI50 (NCI-H226 lung): > 100 µM | TGI (NCI-H226 lung): > 100 µM | GI50 (SK-MEL-5 melanoma): 16.2 µM | TGI (SK-MEL-5 melanoma): > 100 µM | GI50 (HS 578T breast): > 100 µM | TGI (HS 578T breast): > 100 µM | GI50 (HCT-15 colon): 37.3 µM | TGI (HCT-15 colon): > 100 µM | GI50 (U251 glioblastoma): > 100 µM | TGI (U251 glioblastoma): > 100 µM | GI50 (CAKI-1 renal): 62.4 µM | TGI (CAKI-1 renal): > 100 µM | GI50 (M14 melanoma): > 100 µM | TGI (M14 melanoma): > 100 µM | GI50 (EKVX NSCLC): > 100 µM | TGI (EKVX NSCLC): > 100 µM | GI50 (IGROV1 ovarian): > 100 µM | TGI (IGROV1 ovarian): > 100 µM | GI50 ([…]-0 renal): > 100 µM | TGI (786-0 renal): > 100 µM | GI50 (SN12C renal): > 100 µM | TGI (SN12C renal): > 100 µM | GI50 (MDA-MB-231 breast): > 100 µM | TGI (MDA-MB-231 breast): > 100 µM | GI50 (A549 NSCLC): 29.9 µM | TGI (A549 NSCLC): > 100 µM | GI50 (HT29 colon): 48.2 µM | TGI (HT29 colon): > 100 µM | GI50 (SR leukemia): 40.3 µM | TGI (SR leukemia): > 100 µM | GI50 (SF-295 CNS): > 100 µM | TGI (SF-295 CNS): > 100 µM | GI50 (MDA-MB-435 melanoma): > 100 µM | TGI (MDA-MB-435 melanoma): > 100 µM | GI50 (NCI/ADR-RES ovarian): > 100 µM | TGI (NCI/ADR-RES ovarian): > 100 µM | GI50 (PC-3 prostate): > 100 µM | TGI (PC-3 prostate): > 100 µM | GI50 (HCC-2998 colon): > 100 µM | TGI (HCC-2998 colon): > 100 µM | GI50 (OVCAR-5 ovarian): > 100 µM | TGI (OVCAR-5 ovarian): > 100 µM | GI50 (DU-145 prostate): > 100 µM | TGI (DU-145 prostate): > 100 µM | GI50 (K-562 leukemia): 23.4 µM | TGI (K-562 leukemia): > 100 µM | GI50 (HOP-62 NSCLC): > 100 µM | TGI (HOP-62 NSCLC): > 100 µM | GI50 (SF-539 CNS): > 100 µM | TGI (SF-539 CNS): > 100 µM | GI50 (OVCAR-8 ovarian): > 100 µM | TGI (OVCAR-8 ovarian): > 100 µM | GI50 (UO-31 renal): > 100 µM | TGI (UO-31 renal): > 100 µM | GI50 (SW-620 colon): > 100 µM | TGI (SW-620 colon): > 100 µM | GI50 (NCI-H522 lung): 58.2 µM | TGI (NCI-H522 lung): > 100 µM | GI50 (MOLT-4 leukemia): 4.62 µM | TGI (MOLT-4 leukemia): 17.4 µM | GI50 (OVCAR-4 ovarian): > 100 µM | TGI (OVCAR-4 ovarian): > 100 µM | GI50 (RXF 393 renal): > 100 µM | TGI (RXF 393 renal): > 100 µM | GI50 (HL-60(TB) leukemia): > 100 µM | TGI (HL-60(TB) leukemia): > 100 µM | GI50 (ACHN renal): 66.9 µM | TGI (ACHN renal): > 100 µM | GI50 (BT-549 breast): > 100 µM | TGI (BT-549 breast): > 100 µM | GI50 (SK-MEL-28 melanoma): > 100 µM | TGI (SK-MEL-28 melanoma): > 100 µM | GI50 (SF-268 CNS): > 100 µM | TGI (SF-268 CNS): > 100 µM | GI50 (TK-10 renal): > 100 µM | TGI (TK-10 renal): > 100 µM | GI50 (NCI-H23 lung): > 100 µM | TGI (NCI-H23 lung): > 100 µM | GI50 (MALME-3M melanoma): > 100 µM | TGI (MALME-3M melanoma): > 100 µM | GI50 (OVCAR-3 ovarian): > 100 µM | TGI (OVCAR-3 ovarian): > 100 µM | GI50 (SNB-75 CNS): > 100 µM | TGI (SNB-75 CNS): > 100 µM | GI50 (CCRF-CEM leukemia): 39.3 µM | TGI (CCRF-CEM leukemia): > 100 µM | GI50 (UACC-257 melanoma): > 100 µM | TGI (UACC-257 melanoma): > 100 µM | GI50 (HOP-92 NSCLC): 85.6 µM | TGI (HOP-92 NSCLC): > 100 µM | GI50 (UACC-62 melanoma): > 100 µM | TGI (UACC-62 melanoma): > 100 µM | GI50 (LOX IMVI melanoma): > 100 µM | TGI (LOX IMVI melanoma): > 100 µM | GI50 (SK-OV-3 ovarian): > 100 µM | TGI (SK-OV-3 ovarian): > 100 µM | GI50 (KM12 colon): 85.1 µM | TGI (KM12 colon): > 100 µM | GI50 (COLO 205 colon): 37.9 µM | TGI (COLO 205 colon): > 100 µM | GI50 (MCF7 breast): 24.9 µM | TGI (MCF7 breast): > 100 µM | GI50 (MDA-MB-468 breast): 40.3 µM | TGI (MDA-MB-468 breast): > 100 µM | GI50 (NCI-H460 NSCLC): 51.3 µM | TGI (NCI-H460 NSCLC): > 100 µM | GI50 (T-47D breast): > 100 µM | TGI (T-47D breast): > 100 µM
